Results published in US20120034193A1, “TREATMENT OF NEUROTROPHIC FACTOR MEDIATED DISORDERS” (priority 2009, published 2012).

Columns and labels:
[1] = test system: BDNF mRNA; experiment: BDNF mRNA expression in rat cortical neurones under basal conditions (rt RT-PCR); assay type: cell-based; settings: 30 nM
Method: (§1) Rat cortical neurones were cultured by modification of a method previously described (Singer, et al., Neuroscience Letters, 1996, 212, pp. 13-16). Twelve days after the start of culturing, sarsasapogenin (30 nM), smilagenin (30 nM), 4-methylcatechol (0.5 mM), an inducer of NGF and BDNF release (Saporito et al., Experimental Neurology., 1993, 123, pp. 295-302; Nitta et al., Journal of Pharmacology and Experimental Therapeutics, 1999, 291, pp. 1276-1283) or vehicle (dimethyl sulfoxide, DMSO, 0.25%) were added for 1, 3 or 6 h. After incubation the total messenger ribonucleic acid (mRNA) was quantified using real time reverse transcription-polymerase chain reaction (rt RT-PCR).

[2] = test system: trkB mRNA; experiment: trkB mRNA expression in rat cortical neurones under basal conditions (rt RT-PCR); assay type: cell-based; settings: 30 nM
Method: as §1

[3] = test system: rat primary cortical neurones; experiment: ChAT positive neurones and neurite outgrowth after β-amyloid exposure; assay type: cell-based; settings: 10 μM pre-incubation 48 h, then β-amyloid 10 μg/ml 48 h
Method: Rat cortical neurones were cultured by modification of a method previously described (Eckenstein and Sofroniew, Journal of Neuroscience, 1983, 3, pp. 2286-2291). On day 8, the culture medium was changed to a medium containing vehicle (DMSO, 0.5%) or smilagenin or sarsasapogenin (10 μM). On day 10, rat primary cortical neurones were exposed to β-amyloid (10 μg/ml) for 48 h at 37° C. and the concentration of BDNF in the culture medium, the number of choline acetyltransferase (ChAT) positive cells, and the neurite outgrowth was measured (smilagenin only).

[4] = test system: Rat sensory neurones; experiment: Neuronal survival in sensory neurones; assay type: cell-based, Wistar rat; settings: 30 nM, 2 days
Method: Rat sensory neurones were obtained from Wistar rat embryos on the 15th day of gestation. Cells were cultured at 37° C. in 5% CO2/95% air atmosphere. Following 2 days of culturing with sarsasapogenin, smilagenin, vehicle (DMSO, 0.25%) or NGF, sensory neurones were rinsed twice with PBS and fixed in paraformaldehyde (4%) in PBS for 30 min at 4° C. Cells were permeabilised with Triton X-100 (0.1%) and non-specific sites were saturated using foetal bovine serum. Prior to staining, cells were incubated for 2 h at room temperature with a mixture of primary antibodies: anti-neurofilament 68 and 200 in PBS containing foetal bovine serum 5%. Prior to washing, slides were demounted and the cells were washed twice with PBS for 5 min, placed in a dark room for 1 h and incubated with a secondary antibody: anti-mouse coupled with cyanine 3 (Cy3; 1/1600) and an anti-rabbit coupled with fluoroisothiocyanate (FITC; 1/200) in PBS containing foetal bovine serum (5%). Slides were washed twice with PBS for 5 min and mounted on coverslips using Mowiol, an antioxidative solution (9% w/v) in glycerol (22%) buffered with Tris/HCl ([…]; pH 8.5). Slides were left overnight at room temperature to harden and stored in light protected conditions. Slides were viewed using a DAPI/FITC/Cy3 triple filter microscope with a ×20 objective. A series of photographs per well were taken at random using a digital camera.

[5] = test system: Rat dopaminergic neurones; experiment: Pre-treatment against MPP+-induced loss of dopaminergic neurones; assay type: cell-based; settings: 30 nM, 24 h before and during MPP+ 2 μM 48 h
Method: Rat dopaminergic neurones were cultured as previously described (Schinelli et al., Journal of Neurochemistry, 1988, 50, pp. 1900-1907). On day 5, the cultures were washed and placed in fresh medium containing test compounds (30 nM), vehicle (DMSO, 0.25%) or a combination of BDNF (1.85 nM) and GDNF (0.17 nM) for 24 h.
Exposure of rat primary dopaminergic neurones to MPP^+ (2 μM, 24 h) causes a significant decrease in the number of dopaminergic neurones compared to the control. On day 6, MPP^+ (2 μM) was added to the cultures in the presence of test compounds, vehicle or a combination of BDNF and GDNF for a further 48 h. MPP^+ induces neuronal death, via inhibition of complex I in the mitochondria and consequent ATP depletion, resulting in the production of free radicals and induction of apoptosis. After the incubation period, the cultures were fixed with paraformaldehyde in PBS (4%). After fixation, the neurones were permeabilised with Triton ×100 (0.05%) for 30 min. The neurones were then incubated with anti-tyrosine hydroxylase (TH) at 37° C. for 2 h. The neurones were washed three times with PBS, and then incubated with goat anti mouse/Cy3 for 2 h at 37° C. The neurones were mounted and examined with the fluorescence microscopy.

[6] = Tissue distribution after a single oral administration, rat; assay type: in vivo; settings: 30 mg/kg single oral
[7] = Tissue distribution after a single oral administration, dog; assay type: in vivo; settings: 25 mg/kg single oral
[8] = Long term oral toxicity study, non-rodents; assay type: in vivo; settings: high doses, 39 weeks in non-rodents

C[C@H]1CC[C@@]2(OC1)O[C@H]1C[C@H]3[C@@H]4CC[C@@H]5C[C@@H](O)CC[C@]5(C)[C@H]4CC[C@]3(C)[C@H]1[C@@H]2C [Sarsasapogenin, sarsasapogenin]
BDNF mRNA, % increase above control ([1]; 1 h): No increase
BDNF mRNA, % increase above control ([1]; 3 h): 22%
BDNF mRNA, % increase above control ([1]; 6 h): No increase
trkB mRNA, % increase above control ([2]; 1 h): No increase
trkB mRNA, % increase above control ([2]; 3 h): 33%
trkB mRNA, % increase above control ([2]; 6 h): No increase
Number of ChAT positive neurones per field (% of control) [3]: 71.6 ± 3.7 % of control
Neuronal survival (% of control) [4]: 130.83 ± 1.75 % of control
Neuronal survival (% of control) [5]: 88.73 ± 4.39 % of control
Concentration of compound, Brain ([6]; Rat F, 1 h): 1210 ng equivalents/g tissue
Concentration of compound, Plasma ([6]; Rat F, 1 h): 1530 ng equivalents/g tissue
Concentration of compound, Spinal cord ([6]; Rat F, 1 h): 3020 ng equivalents/g tissue
Concentration of compound, Brain ([6]; Rat F, 4 h): 3860 ng equivalents/g tissue
Concentration of compound, Plasma ([6]; Rat F, 4 h): 2050 ng equivalents/g tissue
Concentration of compound, Spinal cord ([6]; Rat F, 4 h): 3830 ng equivalents/g tissue
Concentration of compound, Brain ([6]; Rat F, 8 h): 5980 ng equivalents/g tissue
Concentration of compound, Plasma ([6]; Rat F, 8 h): 1760 ng equivalents/g tissue
Concentration of compound, Spinal cord ([6]; Rat F, 8 h): 5080 ng equivalents/g tissue
Concentration of compound, Brain ([6]; Rat F, 24 h): 2800 ng equivalents/g tissue
Concentration of compound, Plasma ([6]; Rat F, 24 h): 629 ng equivalents/g tissue
Concentration of compound, Spinal cord ([6]; Rat F, 24 h): 3290 ng equivalents/g tissue
Concentration of compound, Brain ([6]; Rat F, 168 h): 134 ng equivalents/g tissue
Concentration of compound, Plasma ([6]; Rat F, 168 h): 90 ng equivalents/g tissue
Concentration of compound, Spinal cord ([6]; Rat F, 168 h): 590 ng equivalents/g tissue
Concentration of compound, Brain ([6]; Rat M, 1 h): 1140 ng equivalents/g tissue
Concentration of compound, Plasma ([6]; Rat M, 1 h): 1690 ng equivalents/g tissue
Concentration of compound, Spinal cord ([6]; Rat M, 1 h): 1090 ng equivalents/g tissue
Concentration of compound, Brain ([6]; Rat M, 4 h): 4970 ng equivalents/g tissue
Concentration of compound, Plasma ([6]; Rat M, 4 h): 2920 ng equivalents/g tissue
Concentration of compound, Spinal cord ([6]; Rat M, 4 h): 4350 ng equivalents/g tissue
Concentration of compound, Brain ([6]; Rat M, 8 h): 6920 ng equivalents/g tissue
Concentration of compound, Plasma ([6]; Rat M, 8 h): 2970 ng equivalents/g tissue
Concentration of compound, Spinal cord ([6]; Rat M, 8 h): 6060 ng equivalents/g tissue
Concentration of compound, Brain ([6]; Rat M, 24 h): 3800 ng equivalents/g tissue
Concentration of compound, Plasma ([6]; Rat M, 24 h): 967 ng equivalents/g tissue
Concentration of compound, Spinal cord ([6]; Rat M, 24 h): 4720 ng equivalents/g tissue
Concentration of compound, Brain ([6]; Rat M, 168 h): 194 ng equivalents/g tissue
Concentration of compound, Plasma ([6]; Rat M, 168 h): 149 ng equivalents/g tissue
Concentration of compound, Spinal cord ([6]; Rat M, 168 h): 747 ng equivalents/g tissue
Concentration of compound, Brain ([7]; Dog F, 4 h): 0.128 ng equivalents/g tissue
Concentration of compound, Plasma ([7]; Dog F, 4 h): 0.184 ng equivalents/g tissue
Concentration of compound, Spinal cord ([7]; Dog F, 4 h): 0.515 ng equivalents/g tissue
Concentration of compound, Brain ([7]; Dog F, 24 h): 8.64 ng equivalents/g tissue
Concentration of compound, Plasma ([7]; Dog F, 24 h): 1.79 ng equivalents/g tissue
Concentration of compound, Spinal cord ([7]; Dog F, 24 h): 5.79 ng equivalents/g tissue
Concentration of compound, Brain ([7]; Dog F, 168 h): 0.535 ng equivalents/g tissue
Concentration of compound, Plasma ([7]; Dog F, 168 h): 0.115 ng equivalents/g tissue
Concentration of compound, Spinal cord ([7]; Dog F, 168 h): 1.43 ng equivalents/g tissue
Concentration of compound, Brain ([7]; Dog M, 4 h): 1.37 ng equivalents/g tissue
Concentration of compound, Plasma ([7]; Dog M, 4 h): 0.641 ng equivalents/g tissue
Concentration of compound, Spinal cord ([7]; Dog M, 4 h): 1.13 ng equivalents/g tissue
Concentration of compound, Brain ([7]; Dog M, 24 h): 2.33 ng equivalents/g tissue
Concentration of compound, Plasma ([7]; Dog M, 24 h): 0.196 ng equivalents/g tissue
Concentration of compound, Spinal cord ([7]; Dog M, 24 h): 1.82 ng equivalents/g tissue
Concentration of compound, Brain ([7]; Dog M, 168 h): 0.605 ng equivalents/g tissue
Concentration of compound, Plasma ([7]; Dog M, 168 h): 0.309 ng equivalents/g tissue
Concentration of compound, Spinal cord ([7]; Dog M, 168 h): 1.49 ng equivalents/g tissue
Long term toxicity [8]: without showing any signs of toxicity or adverse events
